Legend:
[1] = Compound stability in rat liver microsomes; type: in vitro ADME; details: for CLint scaled at 5 μM: liver microsomes, pH 7.4, in vivo CLint extrapolated from rat liver microsome incubation; for half-life at 5 μM: rat liver microsomes 0.5 mg protein/mL, compound 5 μM, NADPH 1.0 mM, pH 7.4, 37° C., read-out: Rat T1/2
Experimental: (§1) The LC/MS/MS system used in the analysis consists of an Agilent 1200 Series vacuum degasser, binary pump, well-plate autosampler, thermostatted column compartment, the Agilent G6430 Triple Quadrupole Mass Spectrometer with an electrosprayionization (ESI) source. Quantitative analysis was carried out using MRM mode. The parameters for MRM transitions are in the Table A.
(§2) An Agilent XDB-C18, 2.1×30 mm, 3.5 μM column was used for the analysis. 5 μL of the samples were injected. Analysis condition: The mobile phase was 0.1% formic acid in water (A) and 0.1% formic acid in methanol (B). The flow rate was 0.4 mL/min. And the gradient of Mobile phase was in the Table B.
(§3) Alternatively, an Agilent 6330 series LC/MS/MS spectrometer equipped with G1312A binary pumps, a G1367A autosampler and a G1314C UV detector were used in the analysis. An ESI source was used on the LC/MS/MS spectrometer. The analysis was done in positive ion mode as appropriate and the MRM transition for each analyte was optimized using standard solution. A Capcell MP-C18 100×4.6 mm I.D., 5 uM column (Phenomenex, Torrance, Calif., USA) was used during the analysis. The mobile phase was 5 mM ammonia acetate, 0.1% MeOH in water (A): 5 mM ammonia acetate, 0.1% MeOH in acetonitrile (B) (70/30, v/v). The flow rate was 0.6 mL/min. Column was maintained at ambient temperature. 20 μL of the samples were injected.
(§4) Human or rat liver microsomes incubations were conducted in duplicate in polypropylene tubes. The typical incubation mixtures consisted of human or rat liver microsomes (0.5 mg protein/mL), compounds of interest (5 μM) and NADPH (1.0 mM) in a total volume of 200 μL potassium phosphate buffer (PBS, 100 mM, pH 7.4). Compounds were dissolved in DMSO and diluted with PBS such that the final concentration of DMSO was 0.05%. The enzymatic reactions were commenced with the addition of […] after a 3-min preincubation and incubated in a water bath open to the air at 37° C. Reactions were terminated at various time points (0, 5, 10, 15, 30, 60 min) by adding equal volume of ice-cold acetonitrile. The samples were stored at […] until LC/MS/MS assays.
(§5) The concentrations of compounds in the incubation mixtures of human or rat liver microsomes were determined by a LC/MS/MS method. The ranges of the linearity in the concentration range were determined for each tested compounds.
(§6) A parallel incubation was performed using denatured microsomes as the negative control, and reactions were terminated at various time points (0, 15, 60 min) after incubation at 37° C.
(§7) Dextromethorphan (70 μM) was selected as the positive control, and reactions were terminated at various time points (0, 5, 10, 15, 30, 60 min) after incubation at 37° C. Both positive and negative control samples were included in each assay to ensure the integrity of the microsomal incubation system.
(§8) The concentrations of compounds in human or rat liver microsome incubations were plotted as a percentage of the relevant zero time point control for each reaction. The in vivo CLint were extrapolated (ref.: Naritomi, Y.; Terashita, S.; Kimura, S.; Suzuki, A.; Kagayama, A.; and Sugiyama, Y.; Prediction of human hepatic clearance from in vivo animal experiments and in vitro metabolic studies with liver microsomes from animals and humans. Drug Metab. Dispos., 2001, 29: 1316-1324).

[2] = Compound stability in human liver microsomes; type: in vitro ADME; details: for half-life at 5 μM: human liver microsomes 0.5 mg protein/mL, compound 5 μM, NADPH 1.0 mM, pH 7.4, 37° C., read-out: Human T1/2; for CLint scaled at 5 μM: liver microsomes, pH 7.4, in vivo CLint extrapolated from human liver microsome incubation
Experimental: as §1, §2, §3, §4, §5, §6, §7, §8

[3] = Pharmacokinetics after intravenous and oral administration in rats; type: in vivo; details: for Clearance (CL) after iv dosing / AUC(0-t) / half-life / Vd: dose 1 mg/kg (Ex. 9: 0.6, Ex. 18: 0.5, Ex. 50: 0.96 mg/kg), iv dosing; for AUC(0-t) / half-life / Vd / bioavailability: rat, plasma; for Vd: read-out: Vss; for bioavailability: oral (generally 5 or 10 mg/kg) versus iv dosing, read-out: F (oral bioavailability)
Experimental: as §1, §2, §3
The compounds disclosed herein are assessed in pharmacokinetic studies in mice, rats, dogs or monkeys. The compounds are administered as a water solution, 2% HPMC+1% TWEEN®80 in water solution, 5% DMSO+5% solutol in saline, 4% MC suspension or capsule. For the intravenous administration, the animals are generally given at about 0.5, 0.6, 1 or 2 mg/kg dose. For the oral (p.o.) dosing, mice and rats are generally given 5 or 10 mg/kg dose, and dogs and monkeys are generally given 10 mg/kg dose. The blood samples (0.3 mL) are drawn at 0.25, 0.5, 1.0, 2.0, 3.0, 4.0, 6.0, 8.0, 12 and 24 h time points or 0.083, 0.25, 0.5, 1.0, 2.0, 4.0, 6.0, 8.0 and 24 h time points and centrifuged at 3,000 or 4000 rpm for 2 to 10 min. The plasma solutions are collected, and stored at […] until analyzed by LC/MS/MS as described above.

JAK1 (h) = target: T1, JAK1 (h) (Homo sapiens, UniProt P23458); assay: JAK1 (h) kinase assay; type: biochemical; details: [γ-33P-ATP] 10 μM or KM values; 40 minutes at room temperature
T1 construct: purchased Millipore UK Ltd (assays performed there as a service)
T1 sequence (P23458 whole entry): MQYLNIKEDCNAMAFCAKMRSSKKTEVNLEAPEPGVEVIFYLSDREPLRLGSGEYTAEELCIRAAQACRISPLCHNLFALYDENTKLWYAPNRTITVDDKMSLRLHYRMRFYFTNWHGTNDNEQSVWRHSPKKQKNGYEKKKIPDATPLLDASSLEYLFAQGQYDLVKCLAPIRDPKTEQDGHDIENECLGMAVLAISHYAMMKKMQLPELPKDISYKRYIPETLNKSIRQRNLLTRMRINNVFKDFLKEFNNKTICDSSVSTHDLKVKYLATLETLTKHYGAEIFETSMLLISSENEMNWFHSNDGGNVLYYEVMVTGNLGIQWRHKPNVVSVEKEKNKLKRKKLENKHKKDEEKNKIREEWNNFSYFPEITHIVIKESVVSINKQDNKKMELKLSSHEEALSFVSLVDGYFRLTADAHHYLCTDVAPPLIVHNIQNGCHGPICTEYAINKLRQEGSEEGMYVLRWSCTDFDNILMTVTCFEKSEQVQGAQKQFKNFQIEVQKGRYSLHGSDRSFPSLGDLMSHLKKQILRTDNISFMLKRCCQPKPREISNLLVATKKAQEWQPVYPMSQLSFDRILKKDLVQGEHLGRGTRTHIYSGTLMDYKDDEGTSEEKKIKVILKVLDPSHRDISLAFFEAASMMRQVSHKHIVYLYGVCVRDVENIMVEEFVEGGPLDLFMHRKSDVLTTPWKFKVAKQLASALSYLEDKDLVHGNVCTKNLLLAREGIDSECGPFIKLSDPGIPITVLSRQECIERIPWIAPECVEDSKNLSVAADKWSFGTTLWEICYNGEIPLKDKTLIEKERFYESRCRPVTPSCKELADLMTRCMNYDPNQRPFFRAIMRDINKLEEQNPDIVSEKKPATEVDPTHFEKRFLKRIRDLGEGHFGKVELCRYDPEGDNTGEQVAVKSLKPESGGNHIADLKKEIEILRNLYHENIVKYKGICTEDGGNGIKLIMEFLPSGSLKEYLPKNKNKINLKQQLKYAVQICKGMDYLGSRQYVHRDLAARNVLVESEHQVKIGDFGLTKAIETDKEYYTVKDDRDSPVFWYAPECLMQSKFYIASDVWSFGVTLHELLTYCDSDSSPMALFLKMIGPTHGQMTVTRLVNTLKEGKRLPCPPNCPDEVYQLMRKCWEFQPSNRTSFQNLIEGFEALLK
Experimental: The above assay procedure can be used to determine the IC50 for inhibition and/or the inhibition constant, Ki. […] The IC50 value is estimated by preparing a 10 point curve using a ½ log dilution series (for example, a typical curve may be prepared using the following compound concentrations: 3 μM, 1 μM, 0.3 μM, 0.1 μM, 0.03 μM, 0.01 μM, 0.003 μM, 0.001 μM, 0.0003 μM and 0 μM).
JAK1 (h) is incubated with 20 mM Tris/HCl pH 7.5, 0.2 mM EDTA, 500 μM […], 10 mM MgAcetate and [γ-^33P-ATP] […] The reaction is initiated by the addition of the MgATP mix. After incubation for 40 minutes at room temperature, the reaction is stopped by the addition of 3% phosphoric acid solution. 10 μL of the reaction is then spotted onto a P30 filtermat and washed three times for 5 minutes in 75 mM phosphoric acid and once in methanol prior to drying and scintillation counting.
The kinase assays described herein were performed at Millipore UK Ltd, Dundee Technology Park, Dundee DD2 1SW, UK.

SMILES | CLint scaled at 5 μM [1] | half-life at 5 μM [1] | half-life at 5 μM [2] | CLint scaled at 5 μM [2] | Clearance (CL) after iv dosing [3] | AUC(0-t) [3] | half-life [3] | Vd [3] | bioavailability [3] | IC50 (JAK1 (h))
CC(O)Cn1cnc2cc(Nc3ncc(Cl)c(NC4CCN(c5ccc(C#N)cn5)CC4)n3)cnc21 (stereo not drawn) [Example 52, 6-(4-((5-chloro-2-((3-(2-hydroxypropyl)-3H-imidazo[4,5-b]pyridin-6-yl)amino)pyrimidin-4-yl)amino)piperidin-1-yl)nicotinonitrile] | 85.1 mL/min/kg | 29.2 min | 47.8 min | 36.4 mL/min/kg | 15.2 mL/min/kg | 1090 ng·h/mL | 51.6 min | 0.96 L/kg | 34.1% | 
CC(C)(O)c1nc2cc(Nc3ncc(Cl)c(NC4CCN(c5ccc(C#N)nn5)CC4F)n3)ccn2n1 (stereo not drawn) [Example 88, 6-(4-((5-chloro-2-((2-(2-hydroxypropan-2-yl)-[1,2,4]triazolo[1,5-a]pyridin-7-yl)amino)pyrimidin-4-yl)amino)-3-fluoropiperidin-1-yl)pyridazine-3-carbonitrile] | 13.2 mL/min/kg | 188 min | 4720 min | 0.4 mL/min/kg | 17.5 mL/min/kg | 1460 ng·h/mL | 32.3 min | 0.688 L/kg | 4.5% | 
Cc1c(Nc2ncc(Cl)c(NC3CCN(c4ccc(C#N)nn4)CC3)n2)ccn2c(C)cnc12 [Example 29, 6-(4-((5-chloro-2-((3,8-dimethylimidazo[1,2-a]pyridin-7-yl)amino)pyrimidin-4-yl)amino)piperidin-1-yl)pyridazine-3-carbonitrile] | 76.8 mL/min/kg | 32.4 min | 43.9 min | 39.6 mL/min/kg | 22.3 mL/min/kg | 751 ng·h/mL | 39.6 min | 1.16 L/kg | 38.5% | 
CC(C)(O)c1nc2cc(Nc3ncc(Cl)c(NC4CCN(c5ccc(C#N)cn5)CC4F)n3)ccn2n1 (stereo not drawn) [Example 89, 6-(4-((5-chloro-2-((2-(2-hydroxypropan-2-yl)-[1,2,4]triazolo[1,5-a]pyridin-7-yl)amino)pyrimidin-4-yl)amino)-3-fluoropiperidin-1-yl)nicotinonitrile] |  |  |  |  |  |  |  |  |  | 2 nM
N#Cc1ccc(N2CCC(Nc3nc(Nc4ccn5ccnc5c4)ncc3Cl)CC2)nn1 [Example 4, 6-(4-((5-chloro-2-(imidazo[1,2-a]pyridin-7-ylamino)pyrimidin-4-yl)amino)piperidin-1-yl)pyridazine-3-carbonitrile] | 75.4 mL/min/kg | 32.9 min | 22.3 min | 78.1 mL/min/kg | 19 mL/min/kg | 909 ng·h/mL | 43.8 min | 1.05 L/kg | 35.1% | 
CC(O)Cn1ccc2cc(Nc3ncc(Cl)c(NC4CCN(c5ccc(C#N)cn5)CC4)n3)cnc21 (stereo not drawn) [Example 54, 6-(4-((5-chloro-2-((1-(2-hydroxypropyl)-1H-pyrrolo[2,3-b]pyridin-5-yl)amino)pyrimidin-4-yl)amino)piperidin-1-yl)nicotinonitrile] | 634 mL/min/kg | 3.92 min | 8.52 min | 204 mL/min/kg | 23.8 mL/min/kg | 714 ng·h/mL | 47.4 min | 0.95 L/kg | 36.6% | 
N#Cc1ccc(N2CCC(Nc3nc(Nc4ccc5c(c4)ncn5CC4CC4)ncc3Cl)CC2)nn1 [Example 63, 6-(4-((5-chloro-2-((1-(cyclopropylmethyl)-1H-benzo[d]imidazol-5-yl)amino)pyrimidin-4-yl)amino)piperidin-1-yl)pyridazine-3-carbonitrile] |  |  |  |  |  |  |  |  |  | 0.4 nM
Cc1nc2cc(Nc3ncc(Cl)c(NC4CCN(c5ccc(C#N)nn5)CC4)n3)ccn2c1C [Example 16, 6-(4-((5-chloro-2-((2,3-dimethylimidazo[1,2-a]pyridin-7-yl)amino)pyrimidin-4-yl)amino)piperidin-1-yl)pyridazine-3-carbonitrile] |  |  |  |  |  |  |  |  |  | 0.3 nM
CN(c1nc(Nc2ccc3ncnn3c2)ncc1Cl)C1CCN(c2ccc(C#N)cn2)CC1 [Example 9, 6-(4-((2-([1,2,4]triazolo[1,5-a]pyridin-6-ylamino)-5-chloropyrimidin-4-yl) (methyl)amino)piperidin-1-yl)nicotinonitrile] | 303 mL/min/kg | 8.21 min | 71.9 min | 24.2 mL/min/kg | 20.8 mL/min/kg | 547 ng·h/mL | 48.6 min | 1.13 L/kg | 69.1% | 
Cc1nc2cc(Nc3ncc(Cl)c(NC4CCN(c5ccc(C#N)nn5)CC4)n3)ccn2n1 [Example 35, 6-(4-((5-chloro-2-((2-methyl-[1,2,4]triazolo[1,5-a]pyridin-7-yl)amino)pyrimidin-4-yl)amino)piperidin-1-yl)pyridazine-3-carbonitrile] | 17.2 mL/min/kg | 144 min | 183 min | 9.5 mL/min/kg | 5.33 mL/min/kg | 3110 ng·h/mL | 156 min | 0.53 L/kg | 57.6% | 
CN(C)C(=O)c1nc2cc(Nc3ncc(Cl)c(NC4CCN(c5ccc(C#N)cn5)CC4)n3)ccn2n1 [Example 83, 7-((5-chloro-4-((1-(5-cyanopyridin-2-yl)piperidin-4-yl)amino)pyrimidin-2-yl)amino)-N,N-dimethyl-[1,2,4]triazolo[1,5-a]pyridine-2-carboxamide] | 193 mL/min/kg | 12.9 min | 15.1 min | 115 mL/min/kg | 9.33 mL/min/kg | 1830 ng·h/mL | 84.6 min | 0.65 L/kg | 38.6% | 

— US10683297B2 (Sunshine Lake Pharma Co., Ltd., priority 2017, dated 2020)
